Changes are numbered by the printed parent chain.
What was measured:
[1] = Half life in rat at 2 mg/kg, iv by LC/MS method; type: ADME, organism-based; details: in vivo
[2] = Selectivity ratio for EC90 for HCV genotype-2b NS5A harboring methionine at position 31 to EC90 for HCV genotype-1a NS5A
[3] = Half life in dog at 1 mg/kg, iv by LC/MS method; type: ADME, organism-based, Canis lupus familiaris; details: in vivo
[4] = AUC in rat at 10 mg/kg, po measured after 24 hrs by LC/MS method; type: ADME, organism-based; parameters: time < 24 hr, dose 10 mg/kg, route oral; details: in vivo
[5] = Plasma clearance in rat at 2 mg/kg, iv measured after 24 hrs by LC/MS method; type: ADME, organism-based
[6] = Selectivity ratio for EC90 for HCV genotype-3a NS5A to EC90 for HCV genotype-1a NS5A
[7] = Plasma clearance in dog at 1 mg/kg, iv measured after 24 hrs by LC/MS method; type: ADME, organism-based, Canis lupus familiaris
[8] = Oral bioavailability in rat at 10 mg/kg measured after 24 hrs by LC/MS method; type: ADME, organism-based; details: in vivo
[9] = Drug uptake in rat at 10 mg/kg, po measured at 24 hrs post dose by LC/MS method; type: ADME, organism-based; details: in vivo, read-out: Drug uptake
[10] = tested on: Hepatitis C virus subtype 1a; assay: Selectivity ratio for EC90 for HCV genotype-1a NS5A L31V mutant to EC90 for HCV genotype-1a NS5A
[11] = Oral bioavailability in dog at 5 mg/kg measured after 24 hrs by LC/MS method; type: ADME, organism-based, Canis lupus familiaris; details: in vivo
Huh-7 [12] = assay: Inhibition of HCV genotype-4a NS5A infected in human HuH7 cells by luciferase reporter gene assay; type: cell-based; details: Hepatitis C virus subtype 4a
[13] = Drug uptake in dog at 5 mg/kg, po measured at 24 hrs post dose by LC/MS method; type: ADME, organism-based, Canis lupus familiaris; details: in vivo, read-out: Drug uptake
[14] = tested on: Hepatitis C virus subtype 1a; assay: Selectivity ratio for EC90 for HCV genotype-1a NS5A Y93H mutant to EC90 for HCV genotype-1a NS5A
Huh-7 [15] = assay: Inhibition of HCV genotype-1a NS5A infected in human HuH7 cells by luciferase reporter gene assay; type: cell-based; details: Hepatitis C virus subtype 1a
Huh-7 [16] = assay: Inhibition of HCV genotype-3a NS5A infected in human HuH7 cells by luciferase reporter gene assay; type: cell-based; details: Hepatitis C virus subtype 3a
[17] = Selectivity ratio for EC90 for HCV genotype-4a NS5A to EC90 for HCV genotype-1a NS5A
[18] = tested on: T1, Nonstructural protein 5A (Hepatitis C virus), Q5L478 [Y93H]; assay: Inhibition of HCV genotype-1a NS5A Y93H mutant infected in human HuH7 cells by luciferase reporter gene assay; type: cell-based; details: Hepatitis C virus subtype 1a; Huh-7
T1 sequence (whole entry): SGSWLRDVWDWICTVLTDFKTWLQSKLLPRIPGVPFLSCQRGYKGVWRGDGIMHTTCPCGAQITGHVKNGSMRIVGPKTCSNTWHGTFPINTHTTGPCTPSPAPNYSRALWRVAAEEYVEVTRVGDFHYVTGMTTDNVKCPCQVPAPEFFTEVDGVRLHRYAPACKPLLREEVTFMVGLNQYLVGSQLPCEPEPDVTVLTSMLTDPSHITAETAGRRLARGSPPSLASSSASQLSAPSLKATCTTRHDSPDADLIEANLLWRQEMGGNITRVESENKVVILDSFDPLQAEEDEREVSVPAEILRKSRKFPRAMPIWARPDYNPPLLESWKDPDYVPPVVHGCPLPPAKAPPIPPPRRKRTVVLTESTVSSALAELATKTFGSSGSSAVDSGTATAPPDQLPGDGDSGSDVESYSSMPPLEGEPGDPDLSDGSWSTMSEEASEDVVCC

[19] = AUC (0 to t) in dog at 5 mg/kg, po measured after 24 hrs by LC/MS method; type: ADME, organism-based, Canis lupus familiaris; parameters: time < 24 hr, dose 5 mg/kg, route oral; details: in vivo
Huh-7 [20] = assay: Inhibition of HCV genotype-2b NS5A harboring methionine at position 31 infected in human HuH7 cells by luciferase reporter gene assay; type: cell-based; details: Hepatitis C virus subtype 2b
[21] = tested on: Nonstructural protein 5A (Hepatitis C virus), Q5L478 [UNDEFINED MUTATION]; assay: Inhibition of HCV genotype-1a NS5A L31V mutant infected in human HuH7 cells by luciferase reporter gene assay; type: cell-based; details: Hepatitis C virus subtype 1a; Huh-7
Huh-7 [22] = assay: Inhibition of HCV genotype-6d NS5A infected in human HuH7 cells by luciferase reporter gene assay; type: cell-based; details: Hepatitis C virus subtype 6d
Huh-7 [23] = assay: Inhibition of HCV genotype-5a NS5A infected in human HuH7 cells by luciferase reporter gene assay; type: cell-based; details: Hepatitis C virus subtype 5a
Huh-7 [24] = assay: Inhibition of HCV genotype-6 NS5A infected in human HuH7 cells by luciferase reporter gene assay; type: cell-based; details: Hepatitis C virus genotype 6
[25] = tested on: Nonstructural protein 5A (Hepatitis C virus), Q5L478 [UNDEFINED MUTATION]; assay: Inhibition of HCV genotype-1a NS5A Q30R mutant infected in human HuH7 cells by luciferase reporter gene assay; type: cell-based; details: Hepatitis C virus subtype 1a; Huh-7
[26] = tested on: T1, Nonstructural protein 5A (Hepatitis C virus), Q5L478 [Y93H]; assay: Inhibition of HCV genotype-1b NS5A Y93H mutant infected in human HuH7 cells by luciferase reporter gene assay; type: cell-based; details: Hepatitis C virus subtype 1b; Huh-7
[27] = tested on: T2, Nonstructural protein 5A (Hepatitis C virus), Q5L478 [Y93C]; assay: Inhibition of HCV genotype-1a NS5A Y93C mutant infected in human HuH7 cells by luciferase reporter gene assay; type: cell-based; details: Hepatitis C virus subtype 1a; Huh-7
T2 sequence (whole entry): T1 sequence (whole entry) with H93C

Huh-7 [28] = assay: Inhibition of HCV genotype-2a NS5A infected in human HuH7 cells by luciferase reporter gene assay; type: cell-based; details: Hepatitis C virus subtype 2a
Huh-7 [29] = assay: Inhibition of HCV genotype-1b NS5A infected in human HuH7 cells by luciferase reporter gene assay; type: cell-based; details: Hepatitis C virus subtype 1b

| SMILES | half-life [1] | Selectivity ratio [2] | half-life [3] | AUC at 24 h [4] | clearance [5] | Selectivity ratio [6] | clearance [7] | bioavailability [8] | concentration at 24 h [9] | bioavailability [11] | EC90 (Huh-7 [12]) | concentration at 24 h [13] | Selectivity ratio [14] | EC90 (Huh-7 [15]) | EC90 (Huh-7 [16]) | Selectivity ratio [17] | EC90 [18] | AUC(0-t) at 24 h [19] | EC90 (Huh-7 [20]) | EC90 [21] | other results |
| --- | --- | --- | --- | --- | --- | --- | --- | --- | --- | --- | --- | --- | --- | --- | --- | --- | --- | --- | --- | --- | --- |
| CCCc1ncc(C2Oc3cc(-c4cnc([C@@H]5CCCN5C(=O)[C@@H](NC(=O)OC)C(C)C)[nH]4)cc(F)c3-c3cc4cc(-c5cnc([C@@H]6CCCN6C(=O)[C@@H](NC(=O)OC)C(C)C)[nH]5)ccc4n32)s1 (stereo not given in full) | 258 min | 140 | 690 min | 0.8 µM·h | 16 mL/min/kg | 2 | 1.8 mL/min/kg | 7% | 4 nM | 23% | 10 pM | 76.7 nM | 88 | 1 pM | 2 pM | 10 | 0.088 nM | 11 µM·h | 0.14 nM | 0.02 nM | Selectivity ratio [10]: 20 |
| COC(=O)N[C@H](C(=O)N1CCC[C@H]1c1nc(-c2ccc3c(c2)O[C@@H](c2ccccc2)n2c-3cc3cc(-c4c[nH]c([C@@H]5CCCN5C(=O)[C@@H](NC(=O)OC)C(C)C)n4)ccc32)c[nH]1)C(C)C | – | – | – | – | – | – | – | – | – | – | 16 pM | – | – | 6 pM | 120 pM | – | – | – | 11 nM | – | EC90 (Huh-7 [22]): 0.008 nM; EC90 (Huh-7 [23]): 2 pM; EC90 (Huh-7 [24]): 0.017 nM; EC90 [25]: 2.5 nM; EC90 [26]: 0.89 nM; EC90 [27]: 1.1 nM; EC90 (Huh-7 [28]): 0.019 nM; EC90 (Huh-7 [29]): 6 pM |
| COC(=O)N[C@H](C(=O)N1CCC[C@H]1c1ncc(-c2cc(F)c3c(c2)OC(c2cccs2)n2c-3cc3cc(-c4cnc([C@@H]5CCCN5C(=O)[C@@H](NC(=O)OC)C(C)C)[nH]4)ccc32)[nH]1)C(C)C (mixture of isomers) | – | 267 | – | – | – | – | – | – | – | – | – | – | 100 | 30 pM | 16 pM | – | 3 to 3.4 nM | – | 8 to 8.2 nM | 0.76 nM | – |
| COC(=O)N[C@H](C(=O)N1CCC[C@H]1c1ncc(-c2ccc3c(c2)OC(c2ccc(Cl)s2)n2c-3cc3cc(-c4cnc([C@@H]5CCCN5C(=O)[C@@H](NC(=O)OC)C(C)C)[nH]4)ccc32)[nH]1)C(C)C (mixture of isomers) | – | 50 | – | – | – | – | – | – | – | – | – | – | 200 | 20 pM | – | – | 4 nM | – | 1 nM | – | – |
| COC(=O)N[C@H](C(=O)N1CCC[C@H]1c1ncc(-c2ccc3c(c2)O[C@@H](c2ccc(C4CC4)cc2)n2c-3cc3cc(-c4cnc([C@@H]5CCCN5C(=O)[C@@H](NC(=O)OC)C(C)C)[nH]4)ccc32)[nH]1)C(C)C | – | 300 | – | – | – | – | – | – | – | – | – | – | 1900 | 4 pM | – | – | 8 nM | – | 1 nM | – | – |
| CCOc1cccc([C@@H]2Oc3cc(-c4cnc([C@@H]5CCCN5C(=O)[C@@H](NC(=O)OC)C(C)C)[nH]4)ccc3-c3cc4cc(-c5cnc([C@@H]6CCCN6C(=O)[C@@H](NC(=O)OC)C(C)C)[nH]5)ccc4n32)c1 | – | 1100 | – | – | – | – | – | – | – | – | – | – | 800 | 20 pM | – | – | 16 nM | – | 22 nM | – | – |
| COC(=O)N[C@H](C(=O)N1CCC[C@H]1c1ncc(-c2cc(F)c3c(c2)OC(c2ccc(C4CC4)s2)n2c-3cc3cc(-c4cnc([C@@H]5CCCN5C(=O)[C@@H](NC(=O)OC)C(C)C)[nH]4)ccc32)[nH]1)C(C)C (stereo not given in full) | 420 min | 53 to 200 | 600 min | 1.1 µM·h | 11 mL/min/kg | 2 | 1.5 mL/min/kg | 5% | 16 nM | 11% | 9 pM | 134 nM | 37 | 3 pM | 7 pM | 3 | 0.11 nM | 10.6 µM·h | 0.16 nM | 0.02 nM | – |
| COC(=O)N[C@H](C(=O)N1CCC[C@H]1c1ncc(-c2ccc3c(c2)OC(c2ccc(C4CC4)s2)n2c-3cc3cc(-c4cnc([C@@H]5CCCN5C(=O)[C@@H](NC(=O)OC)C(C)C)[nH]4)ccc32)[nH]1)C(C)C (stereo not given in full) | – | 117 | – | – | – | – | – | – | – | – | – | – | 400 | 3 pM | – | – | 1.2 nM | – | 0.35 nM | – | – |
| CCOc1cccc([C@@H]2Oc3cc(-c4cnc([C@@H]5CCCN5C(=O)[C@@H](NC(=O)OC)C(C)C)[nH]4)cc(F)c3-c3cc4cc(-c5cnc([C@@H]6CCCN6C(=O)[C@@H](NC(=O)OC)C(C)C)[nH]5)ccc4n32)c1 | – | 800 | – | – | – | – | – | – | – | – | – | – | 200 | 10 pM | – | – | 2 nM | – | 8 nM | – | – |
| CCc1ccc([C@@H]2Oc3cc(-c4cnc([C@@H]5CCCN5C(=O)[C@@H](NC(=O)OC)C(C)C)[nH]4)cc(F)c3-c3cc4cc(-c5cnc([C@@H]6CCCN6C(=O)[C@@H](NC(=O)OC)C(C)C)[nH]5)ccc4n32)s1 | 384 min | 300 | 900 min | 0.7 µM·h | 8 mL/min/kg | 1 | 1.7 mL/min/kg | 3% | 17 nM | 21% | 3 pM | 172 nM | 20 | 3 pM | 2 pM | 1 | 0.06 nM | 13.8 µM·h | 0.9 nM | 0.067 nM | Selectivity ratio [10]: 22 |
| COC(=O)N[C@H](C(=O)N1CCC[C@H]1c1ncc(-c2cc(F)c3c(c2)O[C@@H](c2cnc(C4CC4)s2)n2c-3cc3cc(-c4cnc([C@@H]5CCCN5C(=O)[C@@H](NC(=O)OC)C(C)C)[nH]4)ccc32)[nH]1)C(C)C [RUZASVIR] | 282 min | 12 | 240 min | 0.4 µM·h | 13 mL/min/kg | 2 | 1.6 mL/min/kg | 4% | 3 nM | 22% | 7 to 11 pM | 43 nM | 22 | 3 pM | 6 to 7 pM | 2 | 0.067 nM | 12.9 µM·h | 0.036 nM | 0.016 nM | EC90 (Huh-7 [22]): 0.027 nM; EC90 (Huh-7 [23]): 1 pM; EC90 (Huh-7 [24]): 0.007 nM; EC90 [25]: 0.011 nM; Selectivity ratio [10]: 5; EC90 [26]: 0.009 nM; EC90 [27]: 0.002 nM; EC90 (Huh-7 [28]): 0.001 nM; EC90 (Huh-7 [29]): 3 pM |

Reference: ChEMBL document CHEMBL3877294, “Discovery of Ruzasvir (MK-8408): A Potent, Pan-Genotype HCV NS5A Inhibitor with Optimized Activity against Common Resistance-Associated Polymorphisms” (J Med Chem, 2017)
